These results are taken from US11919858B2, “Aminonapthoquinone compounds and pharmaceutical composition for blocking ubiquitination-proteasome system in diseases” (Calgent Biotechnology Co., Ltd., priority 2015, dated 2024).

The target in data set [1] is T1, ITCH (Homo sapiens, UniProt Q96J02). Description: Blocking of ITCH self-ubiquitination, in vitro assay. The note with it: FIG. 1. In kind it is biochemical. From the text:
(§1) MPT0L056 of the invention was used to test the blocking of ITCH self-ubiquitination. […] [Reference for in vitro assay: Scialpi F, Malatesta M, Peschiaroli A, Rossi M, Melino G, and Bernassola F. Itch self-polyubiquitylation occurs through lysine-63 linkages. Biochem Pharmacol. 2008 Dec. 1; 76(11):1515-21. Reference for in vivo assay: Chang L, Kamata H, Solinas G, Luo J L, Maeda S, Venuprasad K, Liu Y C, and Karin M. The E3 ubiquitin ligase itch couples JNK activation to TNFalpha-induced cell death by inducing c-FLIP(L) turnover. Cell. 2006 Feb. 10; 124(3):601-131

Data set [2] deals with T1, ITCH. Kind of data set: Blocking of ITCH self-ubiquitination, in vivo assay. In kind it is cell-based. The note with it: concentration of 0.5 um and 5 um, FIG. 2.
Text: as §1

For the next data set, the system named is A-498. Kind of data set: Growth inhibition assay. Type of data set: cell-based. The note with it: Homo sapiens, A498; A-498 (Kidney cancer), 48 hours. The method, then:
(§2) Cells were seeded in 96-well plastic plates and exposed to MPT0L056 for 48 hours. Cell viability was assessed using the 3-(4,5-dimethylthiazol-2-yl)-2,5-diphenyltetrazolium bromide assay. Growth inhibition was expressed as the percentage of surviving cells in drug-treated versus DMSO-treated control cells.

In the next data set the test system is ACHN. Kind of data set: Growth inhibition assay. To be noted: Homo sapiens; ACHN (Kidney cancer), 48 hours. In kind it is cell-based. The method, then:
as §2

For a further data set, the system named is AsPC1. Description: Growth inhibition assay. In kind it is cell-based. To be noted: Homo sapiens; AsPC1 (Pancreas cancer), 48 hours. The method, then: as §2
The subject of another data set is BxPC3. Kind of data set: Growth inhibition assay. Type of data set: cell-based. The note with it: Homo sapiens, BXPC-3; BxPC3 (Pancreas cancer), 48 hours. The method, then:
as §2

Another data set has as its system HT-29. Kind of data set: Growth inhibition assay. Type of data set: cell-based. To be noted: Homo sapiens; HT-29 (Colorectal cancer), 48 hours. The method, then:
as §2

The next data set deals with HUVECs. Description: Growth inhibition assay. In kind it is cell-based. The note with it: Homo sapiens, HUVEC; HUVECs (Normal cells), 48 hours. The method, then:
as §2

In the next data set the test system is HepG2. Kind of data set: Growth inhibition assay. In kind it is cell-based. The note with it: Homo sapiens; HepG2 (Liver cancer), 48 hours. The method, then:
as §2

Another data set has as its system K562. Kind of data set: Growth inhibition assay. To be noted: Homo sapiens; K562 (Leukemia), 48 hours. Type of data set: cell-based. The method, then:
as §2

The next data set concerns MCF-7. Description: Growth inhibition assay. In kind it is cell-based. The note with it: Homo sapiens, MCF7; MCF-7 (Breast cancer), 48 hours. The method, then: as §2
Another data set has as its system MOLT4. Description: Growth inhibition assay. Type of data set: cell-based. To be noted: Homo sapiens, MOLT-4; MOLT4 (Leukemia), 48 hours. The method, then:
as §2

In another data set the test system is NCI-H460. Kind of data set: Growth inhibition assay. Type of data set: cell-based. To be noted: Homo sapiens; NCI-H460 (Lung cancer), 48 hours. The method, then:
as §2

The next data set has as its system OVCAR4. Description: Growth inhibition assay. Type of data set: cell-based. To be noted: Homo sapiens, OVCAR-4; OVCAR4 (Ovarian cancer), 48 hours. The method, then:
as §2

In the next data set the test system is PC-6. Description: Growth inhibition assay. In kind it is cell-based. The note with it: Homo sapiens; PC-6 (Lung cancer), 48 hours. The method, then:
as §2

The next data set relates to ZR-75. Description: Growth inhibition assay. In kind it is cell-based. To be noted: ZR75; ZR-75 (Breast cancer), 48 hours. The method, then:
as §2

The next data set concerns HCT-116. Kind of data set: Growth inhibition assay. The note with it: Homo sapiens; HCT-116 (Colorectal cancer), 48 hours; read-out: GI50. Type of data set: cell-based. The method, then:
as §2
(§3) The compounds of the invention were subjected to growth inhibition assay.

The subject of the next data set is HL-60. Description: Growth inhibition assay. Type of data set: cell-based. The note with it: Homo sapiens; HL-60 (Leukemia), 48 hours. The method, then: as §2, §3
A further data set concerns Hep 3B. Description: Growth inhibition assay. To be noted: Homo sapiens, Hep3B; Hep 3B (Liver cancer), 48 hours; read-out: GI50. In kind it is cell-based. The method, then:
as §2, §3

A further data set has as its system MDA-MB-231. Kind of data set: Growth inhibition assay. In kind it is cell-based. To be noted: Homo sapiens; MDA-MB-231 (Breast cancer), 48 hours; read-out: GI50. The method, then:
as §2, §3

Data set [3] deals with human A2780 ovarian adenocarcinoma. Kind of data set: Human A2780 ovarian cancer xenograft in female nude mice (TMU-A2780-e0001). In kind it is in vivo. A general note: In xenograft studies the graft and the host belong to different species.

Bounds are passed on as bounds.

T1 sequence (Q96J02 whole entry, species assumed): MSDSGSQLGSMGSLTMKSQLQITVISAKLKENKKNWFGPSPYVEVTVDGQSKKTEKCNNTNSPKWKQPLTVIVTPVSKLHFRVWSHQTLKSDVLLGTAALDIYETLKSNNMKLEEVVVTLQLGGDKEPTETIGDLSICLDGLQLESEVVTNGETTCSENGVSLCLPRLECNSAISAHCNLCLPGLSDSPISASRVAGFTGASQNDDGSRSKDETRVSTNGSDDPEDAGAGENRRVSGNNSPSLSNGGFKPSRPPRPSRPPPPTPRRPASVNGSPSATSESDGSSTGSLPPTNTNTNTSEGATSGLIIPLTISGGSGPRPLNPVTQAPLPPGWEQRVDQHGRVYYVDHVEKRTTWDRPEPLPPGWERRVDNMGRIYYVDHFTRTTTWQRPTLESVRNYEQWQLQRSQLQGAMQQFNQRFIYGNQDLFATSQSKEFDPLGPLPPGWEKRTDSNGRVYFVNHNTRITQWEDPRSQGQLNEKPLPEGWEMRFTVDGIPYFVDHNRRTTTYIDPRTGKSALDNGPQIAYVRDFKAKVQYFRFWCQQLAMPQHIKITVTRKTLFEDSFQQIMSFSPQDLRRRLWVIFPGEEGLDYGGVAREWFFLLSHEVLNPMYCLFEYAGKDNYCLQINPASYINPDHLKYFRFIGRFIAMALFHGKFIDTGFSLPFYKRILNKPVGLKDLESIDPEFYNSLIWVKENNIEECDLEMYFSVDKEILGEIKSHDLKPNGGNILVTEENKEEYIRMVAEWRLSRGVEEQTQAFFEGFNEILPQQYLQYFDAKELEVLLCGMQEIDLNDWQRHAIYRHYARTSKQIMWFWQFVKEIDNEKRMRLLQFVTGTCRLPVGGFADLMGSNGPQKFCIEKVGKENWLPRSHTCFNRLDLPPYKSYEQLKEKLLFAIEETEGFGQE

The GI50 is the concentration that inhibits growth by half. For the compound `O=C(Nc1ccncc1)c1ccc(CNC2=C(Cl)C(=O)c3ccccc3C2=O)cc1` [MPT0L056], the “blocking of ITCH self-ubiquitination (Lys-dependent)” value on ITCH [1] is recorded as “blocks ITCH self-ubiquitnation (Lys-dependent) efficiently”. In addition, the “blocking of ITCH's in vivo self-ubiquitination” value on ITCH [2] is “blocks ITCH's in vivo self-ubiquitination”. Further, the GI50 amounted to 3.5 µM in the data set on A-498; 2700 nM in the data set with ACHN; 4.6 µM in the data set with AsPC1; 1200 nM in the data set with BxPC3; 3.8 µM in the data set with HT-29; 16 µM in the data set with HUVECs. Besides, the 50% growth inhibitory concentration (GI50) in the data set on HepG2 was 3.6 µM; with K562, 1700 nM; with MCF-7, 900 nM; in the data set on MOLT4, 4 µM; in the data set on NCI-H460, 2900 nM; with OVCAR4 it was 1400 nM. Besides, the GI50 is 1800 nM in the data set with PC-6; greater than 5 µM in the data set with ZR-75; 4.3 µM in the data set on HCT-116; 1600 nM with HL-60; 1400 nM with Hep 3B; 2900 nM in the data set on MDA-MB-231. In addition, the antitumor activity result is recorded as “but not 50 mg/kg (P>0.05) produced significant antitumor activity” in data set [3] (MPT0L056 50 mg/kg (so in the source) p.o. once every day to the end) and “produced significant antitumor activity” in [3] (MPT0L056 200 mg/kg p.o. once every day to the end). For the same compound, the body weight change result in data set [3] (MPT0L056 100 and 200 mg/kg, FIG. 8) is recorded as “did not significantly affect the animal body weight”.
